The source of these data is patent US6677309B1, “Anti-cancer drug aldehyde conjugate drugs with enhanced cytotoxicity compounds, compositions and methods” (University Technology Corporation, priority 1997, dated 2004).

The subject of data set [1] is self-complementary DNA octamer (GC)4. Kind of data set: Drug-DNA conjugate formation with (GC)4, HPLC. The class given is biochemical. As to conditions: for DNA reacted to form drug-DNA conjugates: 33 μM (GC)4, 33 μM conjugate, 4% DMSO. Here is the method:
The amount of available formaldehyde was 99 μM (3×33 μM). […] The experiment was also run at 25° C. in pH 6.0 phosphate buffer containing 4% DMSO. […] The ratio for conjugate 1 was assumed to be 24:1, based upon the value for conjugate 2. […] Under these circumstances, the conjugate 1 area was estimated based upon its 480 nm absorbance, assuming the 24:1 ratio for A260:A480.
The formation of drug-DNA conjugates at 25° C. was monitored by HPLC (Method II). […] The experiment was also run in pH 6.0 phosphate buffer containing 4% DMSO.

Another data set concerns MCF-7/ADR cells. Description: In vitro cytotoxicity, colony formation by crystal violet assay, MCF-7/ADR. The note with it: for fold higher cytotoxicity against MCF-7/ADR cells relative to the parent drug: relative to the respective parent drug. Here is the method:
(§1) The term IC50 as used herein refers to the concentration of drug which inhibits cell growth by 50%, i.e., 50% of cells are viable at the IC50 concentration relative to a no-drug control.
(§2) Cells were incubated with drug for 3 h in RPMI (Roswell Park Memorial Institute) 1640 media containing 10% fetal bovine serum and 1% DMSO. Plates, were developed using the crystal violet assay. […] In all cases percent survival was determined by the extent of colony formation six days after drug treatment.
(§3) All tissue culture materials were obtained from Gibco Life Technologies (Grand Island, N.Y.) unless otherwise stated. MCF-7 breast cancer cells were obtained from American Type Culture Collection (Rockville, Md.). […] Both cell lines were maintained in vitro by serial culture in phenol red-free RPMI Media 1640 supplemented with 10% fetal bovine serum (Gemini Bio-Products, Calbasas, Calif.), L-glutamine (2 mM), HEPES buffer (10 mM), penicillin (100 units/mL), and streptomycin (100 μg/mL). […] Cells were maintained at 37° C. in a humidified atmosphere of 5% CO2 and 95% air.
(§4) Cells were dissociated with trypsin-EDTA, counted, and suspended in growth media to a concentration of 5×10^3 cells/mL. Cell suspensions were dispensed in 200 μL aliquots into 96-well tissue culture plates. Plates were then incubated for 24 h at 37° C. in a humidified atmosphere of 5% CO2 and 95% air. The media was replaced with 180 μL of growth media prior to addition of the cytotoxic agents.
(§5) Concentrations were then corrected by measuring the solution absorbance at 480 nm (ε=11,500/mole anthracycline). The solutions were then serially diluted in DMSO to give a series of 100× working concentration solutions. For each concentration, the 100× solution was diluted 1:10 in serum-free RPMI Media 1640. 20 μL of the resulting […] solution was immediately added to the appropriate lane. Additionally, one lane was treated with 20 μL of 10% DMSO in serum-free RPMI (no drug) and one lane replaced with 200 μL of 1.5 M Tris buffer (no cells). The cells were incubated at 37° C. for 3 h. The drug solutions were removed and 200 μL of fresh growth media was added to each well.
(§6) The extent of colony formation was determined by use of a crystal violet staining assay (Gilles, R. J. et al. (1986), “Determination of cell number in monolayer cultures,” Anal. Biochem. 159:109-113; Reile, H. et al. (1990), “Computerized determination of growth kinetic curves and doubling times from cells in microcultures,” Anal. Biochem. 187:262-267). […] The cells were then stained with 75 μL of 0.1% crystal violet in deionized water for 30 min. […] The plates were blotted dry and 200 μL of 70% ethanol in water was added to each well to solublize the dye. The plates were stored at 4° C. until solubilization was complete (about 4 h). The optical density of each well was measured on an ELISA plate reader at 588 nm. Relative colony sizes were determined by comparison of the drug treated lanes to the control lanes.
(§7) MCF-7 breast cancer cells were obtained from American Type Culture Collection (Rockville, Md.). MCF-7/ADR adriamycin resistant breast cancer cells were a gift of Dr. William W. Wells (Michigan State University). Both cell lines were maintained in vitro by serial culture in phenol red-free RPMI Media 1640 supplemented with 10% fetal bovine serum (Gemini Bio-Products, Calbasas, Calif.), L-glutamine (2 mM), HEPES buffer ([…]), penicillin (100 units/mL), and streptomycin (100 μg/mL). […] Cells were maintained at 37° C. in a humidified atmosphere of 5% CO2 and 95% air.
These were then diluted 10× with autoclaved Millipore water.

Another data set relates to MCF-7 cells. Kind of data set: In vitro cytotoxicity, colony formation by crystal violet assay, MCF-7. The note with it: for fold less toxic than the next conjugate: EPIF versus DAUNF, DAUNF versus DOXF, both sensitive (MCF-7) and resistant (MCF-7/ADR) breast cancer cells. Here is the method: as §1, §2, §3, §4, §5, §6, §7
1640 media containing 10% fetal bovine serum. The resulting 90% media/10% DMSO solutions (v/v) were incubated at 37° C. for 6h.

One may read the IC50 as the concentration that inhibits the measured activity by half.

In the case of `COc1cccc2c1C(=O)c1c(O)c3c(c(O)c1C2=O)C[C@@](O)(C(C)=O)C[C@@H]3O[C@H]1C[C@H]2[C@H](OCN2CN2CO[C@@H]3[C@H](C)O[C@@H](O[C@H]4C[C@](O)(C(C)=O)Cc5c(O)c6c(c(O)c54)C(=O)c4c(OC)cccc4C6=O)C[C@@H]32)[C@H](C)O1` [DAUNF, bis(3′-N-(3′-N,4′-O-methylenedaunorubicinyl))methane], the “(GC)4 reacted relative to the equivalent amount of daunorubicin and formaldehyde” value in data set [1] (33 μM (GC)4, 55 μM conjugate, pH 7.4, 25° C., after approximately 1 min) is given as “four times as much (GC)4”. The “extent of DNA reaction to drug-DNA conjugates” value in data set [1] (317 μM (GC)4, 357 μM conjugate, pH 7.4 phosphate buffer, 25° C., 41 h) is given as “completely reacted”. Besides, the IC50 in the data set on MCF-7/ADR cells (read-out: IC50 Values, MCF-7-ADR, 3 h drug incubation in RPMI 1640, 10% fetal bovine serum, 1% DMSO, colony formation six days after treatment, fresh drug solution) is 5 nM; in the data set with MCF-7 cells (read-out: IC50 Values, MCF-7, 3 h drug incubation in RPMI 1640, 10% fetal bovine serum, 1% DMSO, colony formation six days after treatment, fresh drug solution), 4 nM. Besides, in the data set with MCF-7/ADR cells, the “fold higher cytotoxicity against MCF-7/ADR cells relative to the parent drug” value was 200 fold. In the data set on MCF-7 cells, the “fold less toxic than the next conjugate” value is “approximately 7 fold”. In addition, in the data set on MCF-7 cells (relative to daunorubicin and doxorubicin, respectively), the “times more cytotoxic against the MCF-7 cell line than the parent drug” value was found to be 7 times. Also, the “fold more toxic to MCF-7 cells than the parent drug” value in the data set with MCF-7 cells (relative to the respective parent drug) came to 7 fold.
For the molecule `COc1cccc2c1C(=O)c1c(O)c3c(c(O)c1C2=O)CC(O)(C(=O)CO)CC3OC1CC2C(OCN3CN2COC2C(C)OC(OC4C[C@](O)(C(=O)CO)Cc5c(O)c6c(c(O)c54)C(=O)c4c(OC)cccc4C6=O)CC23)C(C)O1` (stereo partly drawn) [EPIF], the “DNA reacted to form drug-DNA conjugates” value in data set [1] (pH 6.0 phosphate buffer, 25° C., 5 h) stood at 64%; in data set [1] (pH 7.3 phosphate buffer, 25° C., 24 h) it was 68%. The “DNA that had formed drug-DNA conjugates” value in data set [1] (398 μM (GC)4, 796 μM conjugate, pH 7.3 phosphate buffer, 25° C., 5 h) is 91%. Moreover, the “IC50 fold higher than a fresh solution” value with MCF-7/ADR cells (MCF-7/ADR, after 20 h in 90% H2O/10% DMSO at 37° C. or 20 h in DMSO at ambient temperature) came to 5 fold. Besides, the “fold more toxic to resistant cells with respect to epidoxorubicin, conjugate in equilibrium with its hydrolysis products” value in the data set on MCF-7/ADR cells (MCF-7/ADR, hydrolysed equilibrium mixture) was “greater than 25 fold”. Moreover, in the data set on MCF-7/ADR cells, the “fold higher cytotoxicity against MCF-7/ADR cells relative to the parent drug” value is given as “greater than 120 fold”. The “fold less toxic than the next conjugate” value with MCF-7 cells is given as “approximately 7 fold”.
